Assay results as given in US20210251994A1, “INCREASING IMMUNE ACTIVITY THROUGH MODULATION OF POSTCELLULAR SIGNALING FACTORS” (FLAGSHIP PIONEERING INNOVATIONS V, INC., priority 2018, published 2021).
Entries after “also recorded” stand apart in the source; their conditions may differ.

Experiments:
[1] = test system: NFKB; assay: NFKB reporter activity in THP1-Dual monocytes co-cultured with treated PANC1 cells; format: cell-based, human; details: PANC1 cells treated 24 hours, then co-culture with THP1-Dual cells 24 hours; versus DMSO
Procedure: PANC1 pancreatic cancer cells were treated with either control (DMSO) or various doses of Erastin, for 24 hours prior to co-culture with THP1-Dual cells for an additional 24 hours. Erastin was purchased from Selleckchem (Houston, Tex.) and dissolved in DMSO. Subsequently, the THP1 supernatants were assessed for NFKB or IRF reporter activity.
PANC1 cells were acquired from ATCC and THP1-Dual cells were acquired from InvivoGen (San Diego, Calif.). Both cell types were cultured in 96-well plates for the duration of the assay. 7,500 PANC-1 cells were plated 24 hours prior to dosing with Erastin, with a final DMSO concentration of 0.5%. 24 hours post-treatment, THP1-Dual cells (25,000 cells/well) were added to the PANC-1 cells. 24 hours later, 30 μl of supernatant was mixed with either 200 μl QuantiBlue (InvivoGen, San Diego, Calif.) or 50 μl QuantiLuc and absorbance or luminescence was recorded on a Molecular Devices plate reader.

[2] = test system: PANC1 pancreatic cancer cells; assay: Viability of PANC1 pancreatic cancer cells after treatment; format: cell-based; details: various doses, 24 hours treatment
[3] = test system: NFKB; assay: NFKB reporter activity in THP1-Dual monocytes co-cultured with treated Caki-1 cells; format: cell-based, human; details: for NFKB signaling/activity in THP1 monocytes: Caki-1 cells treated 24 hours, then co-culture with THP1-Dual cells 24 hours, versus DMSO
Procedure: Caki-1 renal cell carcinoma cells were treated with either control (DMSO) or various doses of Erastin, for 24 hours prior to co-culture with THP1-Dual cells for an additional 24 hours. Erastin was purchased from Selleckchem (Houston, Tex.) and dissolved in DMSO. Subsequently, the THP1 supernatants were assessed for NFKB or IRF reporter activity.
Caki-1 cells were acquired from ATCC and THP1-Dual cells acquired from InvivoGen (San Diego, Calif.). Both cell types were cultured in 96-well plates for the duration of the assay. 7,500 Caki-1 cells were plated 24 hours prior to dosing with Erastin, with a final DMSO concentration of 0.5%. 24 hours post-treatment, THP1-Dual cells (25,000 cells/well) were added to the Caki-1 cells. 24 hours later, 30 μl of supernatant was mixed with either 200 μl QuantiBlue (InvivoGen) or 50 μl QuantiLuc and absorbance or luminescence was recorded on a Molecular Devices plate reader.
Caki-1 renal cell carcinoma cells were treated with either control (DMSO) or various doses of RSL3, for 24 hours prior to co-culture with THP1-Dual cells for an additional 24 hours. RSL3 was purchased from Selleckchem and dissolved in DMSO. Subsequently, the THP1 supernatants were assessed for NFKB or IRF reporter activity.
Caki-1 cells were acquired from ATCC and THP1-Dual cells acquired from InvivoGen (San Diego, Calif.). Both cell types were cultured in 96-well plates for the duration of the assay. 7,500 Caki-1 cells were plated 24 hours prior to dosing with RSL3, with a final DMSO concentration of 0.5%. 24 hours post-treatment, THP1-Dual cells (25,000 cells/well) were added to the Caki-1 cells. 24 hours later, 30 μl of supernatant was mixed with either 200 μl QuantiBlue (InvivoGen, San Diego, Calif.) or 50 μl QuantiLuc and absorbance or luminescence was recorded on a Molecular Devices plate reader.
Caki-1 renal carcinoma cells were treated with either control (DMSO) or various doses (e.g. 0.002, 0.005, 0.014, 0.041, 0.123, 0.370, 1.111, 3.333 and 10 μM) of a GPX4 inhibitor (RSL3 or ML162) in the presence or absence of 1 μM Ferrostatin for 24 hours prior to co-culture with THP1-Dual cells for an additional 24 hours. Subsequently, the THP1 supernatant was assessed for NFKB reporter activity. Caki-1 cells were acquired from ATCC and THP1-Dual cells acquired from InvivoGen (San Diego, Calif.). Both cell types were cultured in 96-well plates for the duration of the assay.

[4] = test system: HT1080 fibrosarcoma cells; assay: Viability of HT1080 fibrosarcoma cells after treatment; format: cell-based; details: various doses, 24 hours treatment
[5] = test system: cells overexpressing oncogenic HRAS; details: engineered human fibroblast cell lines; Dolma et al., 2003; cited from earlier work
[6] = test system: NFKB; assay: NFKB reporter activity in THP1-Dual monocytes co-cultured with treated HT1080 cells; format: cell-based, human; details: HT1080 cells treated 24 hours, then co-culture with THP1-Dual cells 24 hours; versus DMSO
Procedure: HT1080 fibrosarcoma cells were treated with either control (DMSO) or various doses of Erastin, piperazine erastin (PE), or imidazole ketoerastin (IKE) for 24 hours prior to co-culture with THP1-Dual cells for an additional 24 hours. Erastin was purchased from Selleckchem (Houston, Tex.) and dissolved in DMSO. Subsequently, the THP1 supernatants were assessed for nuclear factor kappa-light-chain-enhancer of activated B cells (NFKB) or interferon regulatory factor (IRF) reporter activity.
HT1080 cells were acquired from ATCC and THP1-Dual cells were acquired from InvivoGen (San Diego, Calif.). THP1-Dual cells are human monocyte cells that induce reporter proteins upon activation of either NFKB or IRF pathways. Both cell types were cultured in 96-well plates for the duration of the assay. HT1080 cells were cultured in DMEM with 10% FBS, and THP1-Dual cells were cultured in RPMI with 10% FBS. 7,500 HT1080 cells were plated 24 hours prior to dosing with Erastin, PE, or IKE, with a final DMSO concentration of 0.5%. 24 hours post-treatment, THP1-Dual cells (25,000 cells/well) were added to the HT1080 cells. 24 hours later, 30 μl of supernatant was mixed with either 200 μl QuantiBlue (InvivoGen, San Diego, Calif.) (for NFKB reporter activity) or 50 μl QuantiLuc (for IRF reporter activity) and absorbance or luminescence was recorded on a Molecular Devices plate reader.
HT1080 fibrosarcoma cells were treated with various doses of Erastin (e.g. […], 0.16, 0.31, 0.63, 1.25, 2.5, 5, 10 or 20 μM) alone or in combination with a ferroptosis inhibitor (1 μM Ferrostatin-1, 1 μM Liproxstatin-1, 100 μM Trolox, 25 μM β-Mercaptoethanol or 100 μM Deferoxamine) for 24 hours prior to co-culture with THP1-Dual cells for an additional 24 hours. Ferrostatin-1 and Liproxstatin-1 were purchased from Selleckchem (Houston, Tex.) and dissolved in DMSO. Trolox was purchased from Cayman Chemical Company Inc and resuspended in DMSO. […] Subsequently, the THP1 supernatant was assessed for NFKB activity. […]

[7] = test system: Caki-1 renal cell carcinoma cells; assay: Viability of Caki-1 renal cell carcinoma cells after treatment; format: cell-based; details: for viability of Caki-1 cells: various doses, 24 hours treatment
Procedure: Caki-1 renal carcinoma cells were treated with either control (DMSO) or various doses (e.g. 0.002, 0.005, 0.014, 0.041, 0.123, 0.370, 1.111, 3.333 and 10 μM) of a GPX4 inhibitor (RSL3 or ML162) in the presence or absence of 1 μM Ferrostatin for 24 hours prior to co-culture with THP1-Dual cells for an additional 24 hours. […] Caki-1 cells were acquired from ATCC and THP1-Dual cells acquired from InvivoGen (San Diego, Calif.). Both cell types were cultured in 96-well plates for the duration of the assay.

[8] = test system: A20 lymphoma cells; assay: Viability of A20 B-cell leukemia / lymphoma cells after treatment; format: cell-based; details: for viability of A20 cells: various doses, 24 hours treatment
[9] = test system: NFKB; assay: NFKB reporter activity in THP1-Dual monocytes co-cultured with treated A20 cells; format: cell-based, human; details: for NFKB signaling/activity in THP1 monocytes: A20 cells treated 24 hours, then co-culture with THP1-Dual cells 24 hours, versus DMSO
Procedure: A20 B-cell leukemia cells were treated with either control (DMSO) or various doses of RSL3, for 24 hours prior to co-culture with THP1-Dual cells for an additional 24 hours. RSL3 was purchased from Selleckchem (Houston, Tex.) and dissolved in DMSO. Subsequently, the THP1 supernatants were assessed for NFKB or IRF reporter activity.
A20 cells were acquired from ATCC and THP1-Dual cells acquired from InvivoGen (San Diego, Calif.). Both cell types were cultured in 96-well plates for the duration of the assay. 50,000 A20 cells were plated 24 hours prior to dosing with RSL3, with a final DMSO concentration of 0.5%. 24 hours post-treatment, THP1-Dual cells (25,000 cells/well) were added to the A20 cells. 24 hours later, 30 μl of supernatant was mixed with either 200 μl QuantiBlue (InvivoGen, San Diego, Calif.) or 50 μl QuantiLuc and absorbance or luminescence was recorded on a Molecular Devices plate reader.
A20 lymphoma cells were treated with various doses (e.g. 0.002, 0.005, 0.014, 0.041, 0.123, 0.370, 1.111, 3.333 and 10 μM) of a GPX4 inhibitor (RSL3, ML162 or ML210) in the presence or absence of 1 μM Ferrostatin-1 for 24 hours. ML162 was purchased from Cayman Chemical Company Inc and resuspended in DMSO. ML210 was purchased from Sigma-Aldrich and resuspended in DMSO. A20 lymphoma cells were also treated with DMSO as a negative control. After treatment with DMSO or a GPX4 inhibitor for 24 hours, the A20 lymphoma cells were co-cultured with THP1-Dual cells for an additional 24 hours. Subsequently, the THP1 supernatant was assessed for NFKB reporter activity. A20 cells were acquired from ATCC and THP1-Dual cells were acquired from InvivoGen (San Diego, Calif.). Both cell types were cultured in 96-well plates for the duration of the assay.

CCOc1ccccc1-n1c(C(C)N2CCN(C(=O)COc3ccc(Cl)cc3)CC2)nc2ccccc2c1=O (stereo not drawn) [Erastin, erastin]
NFKB signaling in THP1 monocytes [1]: elicited NFKB signaling
viability of PANC1 cells [2]: negatively affected the viability
NFKB signaling/activity in THP1 monocytes [3]: elicited NFKB signaling
viability of HT1080 cells [4]: negatively affected the viability; also recorded: decreased viability of the cells in a dose dependent manner
lethality in cells overexpressing oncogenic HRAS [5]: induce preferential lethality
NFKB signaling/activity in THP1 monocytes [6]: elicited NFKB signaling; also recorded: increased NFKB activity in THP1 cells in a dose dependent manner
viability of Caki-1 cells [7]: negatively affected the viability

CCOC(=O)c1ccc(NC2CCCCC2)c(N)c1 [Ferrostatin-1]
effect on GPX4 inhibitor-decreased viability of A20 lymphoma cells ([8]; 1 μM Ferrostatin-1 together with RSL3, ML162 or ML210, 24 hours): attenuated
effect on GPX4 inhibitor-increased NFKB activity in THP1 cells ([3]; Caki-1 cells, 1 μM Ferrostatin-1 together with RSL3 or ML162, then THP1-Dual co-culture 24 hours): attenuated
effect on GPX4 inhibitor-increased NFKB activity in THP1 cells ([9]; A20 cells, 1 μM Ferrostatin-1 together with RSL3, ML162 or ML210, then THP1-Dual co-culture 24 hours): attenuated
effect on GPX4 inhibitor-decreased viability of Caki-1 renal carcinoma cells ([7]; 1 μM Ferrostatin-1 together with RSL3 or ML162, 24 hours): attenuated

CC(C)Oc1ccc(C(=O)Cn2ccnc2)cc1-n1c(CN2CCN(C(=O)COc3ccc(Cl)cc3)CC2)nc2ccccc2c1=O [IKE, imidazole ketoerastin]
viability of HT1080 cells [4]: negatively affected the viability
NFKB signaling/activity in THP1 monocytes [6]: elicited NFKB signaling

COc1ccc(N(C(=O)CCl)C(C(=O)NCCc2ccccc2)c2cccs2)cc1Cl (stereo not drawn) [ML162]
viability of A20 cells [8]: decreased viability of the cells in a dose dependent manner
NFKB signaling/activity in THP1 monocytes [3]: increased NFKB activity in THP1 cells in a dose dependent manner
NFKB signaling/activity in THP1 monocytes [9]: increased NFKB activity in THP1 cells in a dose dependent manner
viability of Caki-1 cells [7]: decreased viability of the cells in a dose dependent manner

Cc1onc(C(=O)N2CCN(C(c3ccc(Cl)cc3)c3ccc(Cl)cc3)CC2)c1[N+](=O)[O-] [ML210]
viability of A20 cells [8]: decreased viability of the cells in a dose dependent manner
NFKB signaling/activity in THP1 monocytes [9]: increased NFKB activity in THP1 cells in a dose dependent manner

CC(C)Oc1ccc(CN2CCNCC2)cc1-n1c(CN2CCN(C(=O)COc3ccc(Cl)cc3)CC2)nc2ccccc2c1=O [PE, piperazine erastin]
viability of HT1080 cells [4]: negatively affected the viability
NFKB signaling/activity in THP1 monocytes [6]: elicited NFKB signaling
